Source: patent US11286256B2, “Bicyclic inhibitors of histone deacetylase” (Alkermes, Inc., priority 2017, dated 2022)

How the values were obtained:
[1] = biological target: T1, CYP3A4 (Homo sapiens, UniProt P08684); assay: CYP inhibition assay in human liver microsomes (3A4, midazolam); assay type: in vitro ADME; conditions: for inhibition at 5 min, 10 µM: probe midazolam, human liver microsomes, midazolam
T1 construct: Human liver microsomes were obtained from BD Gentest; tissue BD Gentest; host or cells: human liver microsomes
T1 sequence (P08684 whole entry): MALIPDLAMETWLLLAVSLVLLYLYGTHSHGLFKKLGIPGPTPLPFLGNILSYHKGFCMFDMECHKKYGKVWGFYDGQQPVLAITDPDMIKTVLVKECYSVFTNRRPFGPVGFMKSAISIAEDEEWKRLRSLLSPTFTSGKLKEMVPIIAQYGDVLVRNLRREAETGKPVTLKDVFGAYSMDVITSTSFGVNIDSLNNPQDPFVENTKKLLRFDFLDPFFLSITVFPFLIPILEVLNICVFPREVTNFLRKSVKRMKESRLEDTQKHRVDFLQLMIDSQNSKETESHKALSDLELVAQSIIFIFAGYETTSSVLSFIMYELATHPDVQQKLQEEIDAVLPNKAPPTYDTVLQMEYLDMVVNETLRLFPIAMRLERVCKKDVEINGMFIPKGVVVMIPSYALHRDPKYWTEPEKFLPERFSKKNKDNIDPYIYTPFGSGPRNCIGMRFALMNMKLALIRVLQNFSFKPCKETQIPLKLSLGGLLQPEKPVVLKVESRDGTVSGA
Description: (§1) Compounds were tested to evaluate their inhibitory potential on CYP2D6 and CYP3A4 (midazolam) using human liver microsomes. Human liver microsomes were obtained from BD Gentest, and each compound was run in duplicate.
(§2) The test compounds and reference inhibitors (quinidine for 2D6, ketoconazole for 3A4) were plated in a 96-well plate by transferring 8 μL of 10 mM stock solutions of compound in DMSO to 12 μL of acetonitrile. Individual inhibitor spiking solutions were prepared for CYP2D6 and CYP3A4 (8 μL of DMSO stock added to 12 μL of acetonitrile). Next added 400 μL of 0.2 mg/mL HLM to the assay wells and then added 2 μL of 400× test compound into the designated wells on ice. Next, added 200 μL of 0.2 mg/mL HLM to the assay wells and then added 1 μL of reference inhibitor solutions into the designated wells. The following solutions were added (in duplicate) to a 96-well assay plate on ice: The test compounds and reference inhibitors (quinidine for 2D6, ketoconazole for 3A4) were tested using the following experimental procedure:
(§3) 10. Incubate the assay plate at 37° C. 5 min for 3A4, 10 min for 2D6.
(§4) 11. Stop the reaction by adding 120 μL of ACN containing Internal Standard. For CYP3A4, the internal standard is 1′OH-midazolam-D4 (10 μM solution diluted to a final concentration of 0.1 μM by adding 100 μL internal standard stock to 10 mL ACN). For CYP2D6, the internal standard is 1-OH-Bufuralol-maleate-[D9] (49 μM solution diluted to a final concentration of 0.1 μM by adding 20 μL internal standard stock to 10 mL ACN).
(§5) The assessment on CYP isoform inhibition is as follows based on the assay results: if percentage of CYP inhibition is higher than 50%, indicates potent inhibition; if percentage of CYP inhibition is between 30-50%, indicates […]; if percentage of CYP inhibition is less than 30%, indicates slight or no inhibition. If the percentage of CYP inhibition is less than −30%, this indicates the compound may have some kind of activation of this isoform.

[2] = biological target: T2, HDAC1 (Homo sapiens, UniProt Q13547); assay: HDAC1 recombinant enzymatic assay; assay type: biochemical; conditions: 5 h pre-incubation, 5 nM enzyme; read-out: HDAC recombinant enzymatic IC50 HDAC1
T2 construct: purchased BPS Bioscience
T2 sequence (Q13547 whole entry): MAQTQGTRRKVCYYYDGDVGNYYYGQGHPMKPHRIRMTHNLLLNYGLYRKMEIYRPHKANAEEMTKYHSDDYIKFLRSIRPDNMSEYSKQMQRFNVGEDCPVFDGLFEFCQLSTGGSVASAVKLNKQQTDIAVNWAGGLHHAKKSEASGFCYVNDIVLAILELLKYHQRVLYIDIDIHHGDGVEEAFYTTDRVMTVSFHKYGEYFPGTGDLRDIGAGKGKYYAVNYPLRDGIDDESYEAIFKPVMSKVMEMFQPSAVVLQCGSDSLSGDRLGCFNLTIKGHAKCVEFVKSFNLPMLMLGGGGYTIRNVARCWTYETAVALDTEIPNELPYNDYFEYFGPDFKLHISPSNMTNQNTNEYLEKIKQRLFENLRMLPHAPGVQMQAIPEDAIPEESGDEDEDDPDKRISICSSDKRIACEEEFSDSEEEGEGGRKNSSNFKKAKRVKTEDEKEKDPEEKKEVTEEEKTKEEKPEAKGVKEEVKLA
Description: (§6) The following describes an assay protocol for measuring the deacetylation of a peptide substrate by the enzymes HDAC2 or HDAC1.
(§7) All recombinant human HDACs were purchased from BPS Bioscience. The substrate, FAM-TSRHK(AC)KL-CONH, was synthesized at NanoSyn. Final assay reactions contained 100 mM HEPES (pH 7.5), 50 mM KCl, 0.1% BSA, 0.01% Triton X-100, 1% DMSO, 1 uM substrate and 5 nM HDAC enzyme. Enzyme and compounds were pre-incubated at 25° C. for 5 hours and reactions were initiated by addition of substrate. 10 uL reactions were incubated for 17 hours at 25° C. and terminated by the addition of 40 uL of buffer containing 100 mM HEPES (pH 7.5), 0.1% BSA, 0.01% Triton X-100 and 0.05% SDS. Substrate and product peptides present in each sample were separated electrophoretically using the LabChip 3000 capillary electrophoresis instrument. Change in the relative fluorescence intensity of the substrate and product peaks reflects enzyme activity. Reaction progress was determined as the product to sum ratio (PSR):P/(S+P), where P is the peak height of the product peptide and S is the peak height of the substrate peptide. Reactions were performed in duplicate at 12 concentrations, (3× serial dilutions starting at 30 uM). IC50 values were calculated using a 4 Parameter Logistic Model.

[3] = biological target: T3, HDAC2 (Homo sapiens, UniProt Q92769); assay: HDAC2 recombinant enzymatic assay; assay type: biochemical; set-up: purchased BPS Bioscience; conditions: 5 h pre-incubation, 5 nM enzyme; read-out: HDAC recombinant enzymatic IC50 HDAC2
T3 sequence (Q92769 whole entry): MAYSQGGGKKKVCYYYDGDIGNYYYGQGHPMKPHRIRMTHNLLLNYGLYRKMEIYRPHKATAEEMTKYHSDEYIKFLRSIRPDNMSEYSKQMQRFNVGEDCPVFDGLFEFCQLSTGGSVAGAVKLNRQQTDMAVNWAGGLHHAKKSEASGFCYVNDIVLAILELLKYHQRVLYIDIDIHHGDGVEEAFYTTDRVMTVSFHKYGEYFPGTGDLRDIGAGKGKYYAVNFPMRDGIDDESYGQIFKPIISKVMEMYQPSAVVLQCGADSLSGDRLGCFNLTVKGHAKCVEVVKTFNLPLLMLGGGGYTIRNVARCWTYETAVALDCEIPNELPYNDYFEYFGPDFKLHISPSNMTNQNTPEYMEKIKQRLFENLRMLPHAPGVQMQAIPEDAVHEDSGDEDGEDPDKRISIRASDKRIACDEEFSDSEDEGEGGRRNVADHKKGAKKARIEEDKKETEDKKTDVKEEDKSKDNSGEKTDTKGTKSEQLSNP
Description: as §6, §7

[4] = biological target: T4, CYP2D6 (Homo sapiens, UniProt P10635); assay: CYP inhibition assay in human liver microsomes (2D6); assay type: in vitro ADME; conditions: for inhibition at 10 min, 10 µM: human liver microsomes; for inhibition of CYP2D6 (in words): 10 μM
T4 construct: Human liver microsomes were obtained from BD Gentest; tissue BD Gentest; host or cells: human liver microsomes
T4 sequence (P10635 whole entry): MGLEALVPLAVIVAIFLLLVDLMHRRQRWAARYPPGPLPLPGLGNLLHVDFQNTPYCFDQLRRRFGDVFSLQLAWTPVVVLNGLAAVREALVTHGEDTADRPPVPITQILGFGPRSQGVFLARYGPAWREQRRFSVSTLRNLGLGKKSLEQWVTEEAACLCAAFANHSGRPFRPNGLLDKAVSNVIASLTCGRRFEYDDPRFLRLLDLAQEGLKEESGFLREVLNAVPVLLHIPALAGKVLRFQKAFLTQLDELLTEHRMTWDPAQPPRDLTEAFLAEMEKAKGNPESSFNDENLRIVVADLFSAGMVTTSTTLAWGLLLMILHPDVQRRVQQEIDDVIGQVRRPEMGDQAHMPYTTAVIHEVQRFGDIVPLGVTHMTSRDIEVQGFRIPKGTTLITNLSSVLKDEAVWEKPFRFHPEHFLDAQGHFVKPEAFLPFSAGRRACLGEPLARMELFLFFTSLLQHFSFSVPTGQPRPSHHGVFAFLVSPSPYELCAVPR
Description: as §1, §2, §3, §4, §5

[5] = biological target: T3, HDAC2; assay: HDAC2 enzymatic inhibition assay in SY5Y cell lysate with HDAC-Glo2 substrate; assay type: cell-based; set-up: host or cells: SH-SY5Y; conditions: SH-SY5Y cells, 5 h compound incubation, HDAC-Glo 2 reagent
Description: HDAC2 Enzymatic Inhibition Assay in SY5Y Cell Lysate with HDAC-Glo2 Substrate
SH-SY5Y cells (Sigma) were cultured in Eagle's Modified Essential Medium supplemented with 10% fetal bovine serum and pen/strep. Twenty-four hours prior to compound dosing 20 uL of cells were plated in white 384 well plates at a density of 1,500 cells/well. Compounds were serially diluted in neat DMSO and then diluted 1:100 v/v into media without FBS and mixed. Media was removed from the plated cells and the diluted compounds in serum free media (1% v/v final DMSO) were added and incubated at 37.0 for five hours. Ten uL of HDAC-Glo 2 reagent with 0.1% Triton X-100 was then added, the plate was mixed and allowed to develop at room temperature for 100 minutes. Plates were then read with a Spectramax LMax luminometer employing a 0.4 s integration time. Dose response curves were constructed with normalized data where CI-994 at 100 uM was defined as 100% inhibition and DMSO alone as 0% inhibition.

SMILES | inhibition at 5 min, 10 µM [1] [%] | IC50 [2] [nM] | IC50 [3] [nM] | inhibition at 10 min, 10 µM [4] [%] | IC50 [5] [nM] | inhibition of CYP2D6 (in words) [4] | inhibition of CYP3A4 (in words) ([1]; 10 μM)
Nc1ccc(-c2ccc(F)cc2)cc1NC(=O)N1Cc2nccnc2C1 [Comparator A] | -22 | 27 | 142 | 34 | 369 |  | 
Nc1ccc(-c2ccc(F)cc2)nc1NC(=O)N1Cc2nccnc2C1 [Comparator B] | 1.5 | 119 | 475 | 9 | 485 |  | 
Nc1ccc(-c2cccs2)nc1NC(=O)N1Cc2nccnc2C1 [Comparator C] | 1 | 95 | 301 | 0.2 | 279 |  | 
Nc1ccc(-c2ccc(F)cc2)nc1NC(=O)N1Cc2cncnc2C1 [Comparator D] | 2 | 239 | 627 | 85 | 331 | significant inhibition | 
Nc1ccc(-c2cccs2)nc1NC(=O)N1Cc2cncnc2C1 [Comparator E] | -17 | 142 | 511 | 50 | 278 | significant inhibition | 
COCc1cc2c(cn1)CN(C(=O)Nc1nc(-c3ccc(F)cc3F)ccc1N)C2 [Compound 1] | 27 | 326 | 510 | -1 | 777 |  | 
Cc1ncc2c(n1)CN(C(=O)Nc1nc(-c3cccs3)ccc1N)C2 [Compound 2] | 1 | 133 |  | -5 | 577 | no significant inhibition | no significant inhibition
